The values that follow come from JP2009512709A, “速効型インスリンの経鼻投与” (エムディーアールエヌエー，インコーポレイテッド, priority 2005, dated 2007).

Data set [1] in a line: Rabbit pharmacokinetics (serum insulin) after IN, SC, IV or oral insulin. The settings on record: PK study 2. In kind it is in vivo, ニュージーランド白色ラビット.
A further data set has as its system EpiAirway. Briefly: Insulin tissue permeation across EpiAirway, ELISA. In kind it is in vitro ADME. The settings on record: in vitro study 3; Tween-containing formulations.
Another data set has as its system 黄色ブドウ球菌、クロカビ、緑膿菌. Briefly: Antimicrobial effectiveness test (AET), USP and EP requirements. The settings on record: for AET result against EP requirements / AET result against USP requirements: insulin nasal spray formulations (placebo or active); for Preservative / antimicrobial effectiveness: in insulin nasal spray formulations, neutral pH.
The nature of data set [2]: Compatibility of preservative with insulin (precipitation). In kind it is physicochemical. The settings on record: presence in formulation caused insulin precipitation.
For the next data set, the system named is グルコース. The data set is described as follows: Human PD clinical study, glucose by glucometer. The format is in vivo, ヒト. The settings on record: intranasal administration.

As for `CCCCCCCCCC(=O)OC[C@H](COP(=O)([O-])OCC[N+](C)(C)C)OC(=O)CCCCCCCCC` [DDPC, L−α−ホスファチジルコリンジデカノイル], the “Effect of removing DDPC on BA(%), Cmax and AUClast” value in data set [1] is “減少した”. Further, in the data set on EpiAirway, the “Effect of removing the excipient from the formulation on insulin permeation” value was “影響を有しなかった”.

Consider `O=C([O-])CN(CCN(CC(=O)[O-])CC(=O)O)CC(=O)O.[Na+].[Na+]` [EDTA, エデト酸二ナトリウム], for which, in the data set with 黄色ブドウ球菌、クロカビ、緑膿菌, the “AET result against EP requirements” value was “有効であるとは思われなかった” and the “AET result against USP requirements” value was “有効であるとは思われなかった”.

Take `Cc1cccc(O)c1` [m−クレゾール]: in the data set on 黄色ブドウ球菌、クロカビ、緑膿菌, the “Preservative / antimicrobial effectiveness” value is reported as “有効な防腐剤ではなかった”.

Regarding `CC(C)CC(N)B(O)O` (stereo not drawn) [ベンジルアルコール], the “Preservative / antimicrobial effectiveness” value in the data set with 黄色ブドウ球菌、クロカビ、緑膿菌 is “有効な防腐剤ではなかった and 無効”.

Take `CC(C)CC(N)B(O)O` (stereo not drawn) [塩化ベンズアルコニウム]: in the data set on 黄色ブドウ球菌、クロカビ、緑膿菌, the “Preservative / antimicrobial effectiveness” value was “最良の抗菌性能”, the “AET result against EP requirements” value was “優れた防腐剤” and the “AET result against USP requirements” value was “優れた防腐剤”. In addition, the Compatibility with insulin entry in data set [2] is on record as “不適合性”.

Consider `CC(C)CC(N)B(O)O` (stereo not drawn) [安息香酸ナトリウム], for which the “Preservative / antimicrobial effectiveness” value in the data set with 黄色ブドウ球菌、クロカビ、緑膿菌 is on record as “有効な防腐剤ではなかった”.

“インスリン: recombinant native-sequence human insulin”: the “Reduction of glucose (%) in patients” value with グルコース is given as “有効”.
